Data on 16 compounds can be found in patent US11220524B2, “Selective inhibitors of protein arginine methyltransferase 5 (PRMT5)” (PRELUDE THERAPEUTICS, INCORPORATED, priority 2017, dated 2022).

As usually defined, the inhibition is the change of the read-out against control, counted positive when it falls. Higher therefore signals a strong effect.

One assay addresses PRMT5/MEP50 complex (Homo sapiens (Human), UniProt O14744). Kind of assay: Biochemical assay: PRMT5/MEP50 methylation of histone H2A with 3H-SAM, filter plate scintillation. On the procedure:
Biochemical Assay Protocol
Compounds were solubilized, and 3-fold diluted in 100% DMSO. […] Standard reactions were performed in a total volume of […] assay buffer, with histone H2A (5 μM final) as substrate. To this was added the PRMT5/MEP50 complex diluted to provide a final assay concentration of 5 nM and the compounds were allowed to preincubate for 15 to 20 minutes at room temperature. The reaction was initiated by adding S-[3H-methyl]-adenosyl-L-methionine (PerkinElmer) to final concentration of 1 μM. Following a 60 minutes incubation at 30° C., the reaction was stopped by adding 100 μL of 20% TCA. Each reaction was spotted onto filter plate (MultiScreen FB Filter Plate, Millipore), and washed 5 times with PBS buffer, Scintillation fluid was added to the filter plate and read in a scintillation counter. IC50 values were determined by fitting the data to the standard 4 parameters with Hill Slope using GraphPad Prism software.

The test system of assay [1] is Symmetric Di-Methyl Arginine (sDMA) in Granta-519 cells. Kind of assay: Western blot for symmetric di-methyl arginine (sDMA) marks in Granta cells, 3 days treatment. It counts as cell-based. Conditions: Homo sapiens; for IC50: 3 days; for inhibition at 1 µM: Granta-519. On the procedure:
Cell Treatment and Western Blotting for Detecting Symmetric Di-Methyl Arginine (sDMA) and Histone H3R8 Dimethyl Symmetric (H3R8me2s) Marks
Initial compounds screening in A549 cells: Compounds were dissolved in DMSO to make 10 mM stock and further diluted to 0.1, and 1 mM. A549 cells were maintained in PRMI 1640 (Corning Cellgro, Catalog #: 10-040-CV) medium supplemented with 10% v/v FBS (GE Healthcare, Catalog #: SH30910.03). One day before experiment, 1.25×10^5 cells were seeded in 6 well plate in 3 mL medium and incubated overnight. The next day, medium was changed and 3 uL of compound solution was added (1:1,000 dilution, 0.1 and 1 uM final concentration; DMSO concentration: 0.1%), and incubated for 3 days. Cells incubated with DMSO was used as a vehicle control. Cells were washed once with PBS, trypsinized in 150 uL 0.25% Trypsin (Corning, Catalog #: 25-053-CI), neutralized with 1 mL complete medium, transferred to microcentrifuge tubes and collected. Cell pellet was then resuspended in 15 uL PBS, lysed in 4% SDS, and homogenized by passing through homogenizer column (Omega Biotek, Catalog #: HCR003). Total protein concentrations were determined by BCA assay (ThermoFisher Scientific, Catalog #: 23225). Lysates were mixed with 5× Laemmli buffer and boiled for 5 min. Forty ug of total protein was separated on SDS-PAGE gels (Bio-Rad, catalog #: 4568083, 4568043), transferred to PVDF membrane, blocked with 5% dry milk (Bio-Rad, Catalog #: 1706404) in TBS with 0.1% v/v Tween 20 (TBST) for 1 hour at room temperature (RT), and incubated with primary antibodies (sDMA: Cell signaling, Catalog #: 13222, 1:3,000; H3R8me2s: Epigentek, Catalog #: A-3706-100, 1:2,000; β-Actin: Abcam, Catalog #: ab8227, 1:10,000) in 5% dry milk in TBST at 4° C. for overnight. The next day, membranes were washed with TBST, 5×5 min, and incubated withhP conjugated seconded antibody (GE Healthcare; Catalog #: NA934-1ML; 1:5,000) for 2 hours at RT, followed by 5×5 min washes with TBST, and incubation with ECL substrates (Bio-Rad, Catalog #: 1705061, 1705062). Chemiluminescent signal was captured with FluoChem HD2 imager (Proteinsimple) and analyzed by ImageJ.
Cells incubated with DMSO was used as a vehicle control. Cells were harvested and subjected to western blot analysis as described above. SmD3me2s and H3R8me2s bands were quantified by ImageJ. Signals were normalized to β-Actin and DMSO control. IC50 values were calculated using Graphpad Prism.

The mark [2] stands for this setting: histone H2A 5 μM, SAM 1 μM, enzyme 5 nM, read-out: PRMT5/MEP50 IC50.

Counter-ions that a name gives are not always drawn. Like-named read-outs stand apart in the source and are kept apart here.

Chain of PRMT5/MEP50 complex (O14744 whole entry): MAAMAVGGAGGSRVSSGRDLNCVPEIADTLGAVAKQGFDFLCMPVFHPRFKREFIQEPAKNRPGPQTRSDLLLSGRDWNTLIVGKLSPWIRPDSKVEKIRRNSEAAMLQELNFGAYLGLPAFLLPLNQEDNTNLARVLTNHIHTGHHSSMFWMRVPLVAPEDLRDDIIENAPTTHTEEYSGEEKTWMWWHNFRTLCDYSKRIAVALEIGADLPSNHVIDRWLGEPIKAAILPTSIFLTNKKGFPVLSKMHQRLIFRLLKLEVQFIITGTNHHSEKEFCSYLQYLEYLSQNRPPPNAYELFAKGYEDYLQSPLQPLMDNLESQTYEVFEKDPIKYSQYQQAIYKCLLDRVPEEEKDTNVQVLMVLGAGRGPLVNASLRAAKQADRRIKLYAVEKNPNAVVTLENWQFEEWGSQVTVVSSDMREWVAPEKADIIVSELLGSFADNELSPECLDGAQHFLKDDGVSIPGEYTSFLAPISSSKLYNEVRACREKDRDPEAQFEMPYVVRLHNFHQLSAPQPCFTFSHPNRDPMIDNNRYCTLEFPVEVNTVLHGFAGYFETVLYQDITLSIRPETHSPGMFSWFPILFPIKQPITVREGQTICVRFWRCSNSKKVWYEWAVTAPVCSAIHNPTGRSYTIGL
Chain of PRMT5/MEP50 complex (Q9BQA1 whole entry partner): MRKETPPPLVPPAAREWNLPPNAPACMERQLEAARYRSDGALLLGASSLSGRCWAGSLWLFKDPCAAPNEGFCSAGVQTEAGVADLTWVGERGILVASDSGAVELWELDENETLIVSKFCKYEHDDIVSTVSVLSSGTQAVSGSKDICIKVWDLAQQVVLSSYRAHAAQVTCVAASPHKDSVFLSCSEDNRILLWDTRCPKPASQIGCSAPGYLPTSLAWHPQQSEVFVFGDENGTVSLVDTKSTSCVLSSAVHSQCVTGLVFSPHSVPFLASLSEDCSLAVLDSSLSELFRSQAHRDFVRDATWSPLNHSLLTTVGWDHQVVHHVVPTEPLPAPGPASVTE

Take `C[C@@](O)(c1ccc(Cl)c(Cl)c1)[C@H]1C[C@@H](n2ccc3/c(=N\O)nc[nH]c32)[C@H](O)[C@@H]1O` [Example 94-B, 7-((1R,2S,3R,4S)-4-((S)-1-(3,4-dichlorophenyl)-1-hydroxyethyl)-2,3-dihydroxycyclopentyl)-1,7-dihydro-4H-pyrrolo[2,3-d]pyrimidin-4-one oxime]: the IC50 on PRMT5/MEP50 complex (biochemical potency, read-out: PRTMT5/MEP50 IC50) was 3.4 nM; in assay [1] (Granta-519, 72 h, Granta cell line), 53 nM.

On to `CO/N=c1\nc[nH]c2c1ccn2[C@@H]1O[C@H]([C@H](O)c2ccc(C(F)(F)F)c(C)c2)[C@@H](O)[C@H]1O` [Example 98, 7-((2R,3R,4S,5R)-3,4-dihydroxy-5-((R)-hydroxy(3-methyl-4-(trifluoromethyl)phenyl)methyl)tetrahydrofuran-2-yl)-1,7-dihydro-4H-pyrrolo[2,3-d]pyrimidin-4-one O-methyl oxime], for which the IC50 at PRMT5/MEP50 complex (setting [2]) is 8.4 nM; in assay [1] (72 h, Granta-519 cell line) it was 9 nM.

Regarding `CO/N=c1\nc[nH]c2c1ccn2[C@@H]1O[C@H]([C@H](OC)c2ccc(Cl)c(F)c2)[C@@H](O)[C@H]1O` [Example 102, 7-((2R,3R,4S,5S)-5-((R)-(4-chloro-3-fluorophenyl)(methoxy)methyl)-3,4-dihydroxytetrahydrofuran-2-yl)-1,7-dihydro-4H-pyrrolo[2,3-d]pyrimidin-4-one O-methyl oxime], the IC50 on PRMT5/MEP50 complex (setting [2]) is 436 nM; in assay [1] (72 h, Granta-519 cell line), 3360 nM.

In the case of `CN/N=c1/nc[nH]c2c1ncn2[C@@H]1O[C@H]([C@H](O)c2ccc(Cl)cc2)[C@@H](O)[C@H]1O` [compound 52, (2R,3S,4R,5R)-2-[(R)-(4-chlorophenyl)-hydroxy-methyl]-5-[6-(methylhydrazono)-3H-purin-9-yl]tetrahydrofuran-3,4-diol; 2,2,2-trifluoroacetic Acid], the IC50 at PRMT5/MEP50 complex (setting [2]) was determined as 188 nM. This compound also gave an inhibition at 1 µM in assay [1] of 39%.

On to `O/N=c1/nc[nH]c2c1ncn2[C@@H]1O[C@H]([C@H](O)c2ccc(Cl)cc2)[C@@H](O)[C@H]1O` [compound 54, 9-[(2R,3R,4S,5R)-5-[(R)-(4-chlorophenyl)-hydroxy-methyl]-3,4-dihydroxy-tetrahydrofuran-2-yl]-3H-purin-6-one oxime trifluoroacetic Acid Salt], for which, on PRMT5/MEP50 complex (setting [2]), the IC50 was 25.6 nM. In addition, 1 µM produced 55% inhibition in assay [1].

As for `C[C@@](O)(c1ccc(Cl)cc1)[C@H]1O[C@@H](n2ccc3/c(=N/O)nc[nH]c32)[C@H](O)[C@@H]1O` [compound 59, 7-((2R,3R,4S)-5-((R)-1-(4-chlorophenyl)-1-hydroxyethyl)-3,4-dihydroxytetrahydrofuran-2-yl)-1,7-dihydro-4H-pyrrolo[2,3-d]pyrimidin-4-one oxime hydrochloride], the IC50 amounted to 2.8 nM at PRMT5/MEP50 complex (setting [2]) and 45 nM in assay [1] (72 h, Granta-519 cell line).

`CO/N=c1\nc[nH]c2c1ccn2[C@@H]1O[C@H]([C@](C)(O)c2ccc(Cl)cc2)[C@@H](O)[C@H]1O` [compound 60, 7-((2R,3R,4S)-5-((R)-1-(4-chlorophenyl)-1-hydroxyethyl)-3,4-dihydroxytetrahydrofuran-2-yl)-1,7-dihydro-4H-pyrrolo[2,3-d]pyrimidin-4-one O-methyl oxime]: the IC50 is 37.7 nM at PRMT5/MEP50 complex (setting [2]) and 438 nM in assay [1] (72 h, Granta-519 cell line).

For `O/N=c1/nc[nH]c2c1ccn2[C@@H]1O[C@H]([C@H](O)c2ccc(Cl)c(F)c2)[C@@H](O)[C@H]1O` [compound 63, 7-((2R,3R,4S,5R)-5-((R)-(4-chloro-3-fluorophenyl)(hydroxy)methyl)-3,4-dihydroxytetrahydrofuran-2-yl)-1,7-dihydro-4H-pyrrolo[2,3-d]pyrimidin-4-one oxime], the IC50 at PRMT5/MEP50 complex (setting [2]) is 0.7 nM; in assay [1] (72 h, Granta-519 cell line), 10.8 nM.

With `CN/N=c1\nc[nH]c2c1ccn2[C@@H]1O[C@H]([C@H](O)c2ccc(Cl)cc2)[C@@H](O)[C@H]1O` [compound 64, (2R,3S,4R,5R)-2-[(R)-(4-chlorophenyl)-hydroxy-methyl]-5-[4-(methylhydrazono)-1H-pyrrolo[2,3-d]pyrimidin-7-yl]tetrahydrofuran-3,4-diol hydrochloride], the IC50 on PRMT5/MEP50 complex (setting [2]) was determined as 8.3 nM; in assay [1] (72 h, Granta-519 cell line), 93 nM.

For `O/N=c1/nc[nH]c2c1ccn2[C@@H]1O[C@H]([C@H](O)c2ccc(F)c(Cl)c2)[C@@H](O)[C@H]1O` [compound 65, 7-((2R,3R,4S,5R)-5-((R)-(3-chloro-4-fluorophenyl)(hydroxy)methyl)-3,4-dihydroxytetrahydrofuran-2-yl)-1,7-dihydro-4H-pyrrolo[2,3-d]pyrimidin-4-one oxime], the IC50 on PRMT5/MEP50 complex (setting [2]) is 1.9 nM; in assay [1] (72 h, Granta-519 cell line), 16 nM.

For `O/N=c1\nc[nH]c2c1ccn2[C@@H]1O[C@H]([C@H](O)c2ccc(Cl)c(Cl)c2)[C@@H](O)[C@H]1O` [compound 66, 7-((2R,3R,4S,5R)-5-((R)-(3,4-dichlorophenyl)(hydroxy)methyl)-3,4-dihydroxytetrahydrofuran-2-yl)-1,7-dihydro-4H-pyrrolo[2,3-d]pyrimidin-4-one oxime], the IC50 at PRMT5/MEP50 complex (setting [2]) was determined as 0.4 nM; in assay [1] (72 h, Granta-519 cell line), 1.8 nM.

Regarding `O/N=c1\nc[nH]c2c1ccn2[C@@H]1O[C@H]([C@H](O)c2ccc(F)c(F)c2)[C@@H](O)[C@H]1O` [compound 67, 7-((2R,3R,4S,5R)-5-((R)-(3,4-difluorophenyl)(hydroxy)methyl)-3,4-dihydroxytetrahydrofuran-2-yl)-1,7-dihydro-4H-pyrrolo[2,3-d]pyrimidin-4-one oxime], the IC50 at PRMT5/MEP50 complex (setting [2]) amounted to 0.6 nM; in assay [1] (72 h, Granta-519 cell line) it was 10 nM.

Turning to `CO/N=c1/nc[nH]c2c1ccn2[C@@H]1O[C@H]([C@H](O)c2ccc(F)c(Cl)c2)[C@@H](O)[C@H]1O` [compound 68, 7-((2R,3R,4S,5R)-5-((R)-(3-chloro-4-fluorophenyl)(hydroxy)methyl)-3,4-dihydroxytetrahydrofuran-2-yl)-1,7-dihydro-4H-pyrrolo[2,3-d]pyrimidin-4-one O-methyl oxime], the IC50 on PRMT5/MEP50 complex (setting [2]) turned out to be 35 nM; in assay [1] (72 h, Granta-519 cell line), 90 nM.

Take `Cc1n/c(=N\O)c2ccn([C@@H]3O[C@H]([C@H](O)c4ccc(Cl)cc4)[C@@H](O)[C@H]3O)c2[nH]1` [compound 71, 7-((2R,3R,4S,5R)-5-((R)-(4-chlorophenyl)(hydroxy)methyl)-3,4-dihydroxytetrahydrofuran-2-yl)-2-methyl-1,7-dihydro-4H-pyrrolo[2,3-d]pyrimidin-4-one oxime]: the IC50 on PRMT5/MEP50 complex (setting [2]) is 13.9 nM; in assay [1] (72 h, Granta-519 cell line), 260 nM.

As for `O/N=c1/nc[nH]c2c1c(F)cn2[C@@H]1O[C@H]([C@H](O)c2ccc(Cl)cc2)[C@@H](O)[C@H]1O` [compound 72, 7-((2R,3R,4S,5R)-5-((R)-(4-chlorophenyl)(hydroxy)methyl)-3,4-dihydroxytetrahydrofuran-2-yl)-5-fluoro-1,7-dihydro-4H-pyrrolo[2,3-d]pyrimidin-4-one oxime], the IC50 at PRMT5/MEP50 complex (setting [2]) turned out to be 2.8 nM; in assay [1] (72 h, Granta-519 cell line), 41 nM.

On to `N/N=c1/nc[nH]c2c1c(F)cn2[C@@H]1O[C@H]([C@H](O)c2ccc(Cl)cc2)[C@@H](O)[C@H]1O` [compound 73, (2R,3S,4R,5R)-2-((R)-(4-chlorophenyl)(hydroxy)methyl)-5-(5-fluoro-4-hydrazineylidene-1,4-dihydro-7H-pyrrolo[2,3-d]pyrimidin-7-yl)tetrahydrofuran-3,4-diol], for which the IC50 on PRMT5/MEP50 complex (setting [2]) was 9.7 nM; in assay [1] (72 h, Granta-519 cell line) it was 313 nM.
